# Values of other authors as cited in PMC12655172, “Borylated 5-Membered Ring Iminosugars: Synthesis and Biological Evaluation for Glycosidase Inhibition and Anticancer Properties for Application in Boron Neutron Capture Therapy (BNCT)—Part 2” (Pharmaceuticals, 2025).
# Columns and labels:
# β-glucosidase (almond) = biological target: β-glucosidase (almond); set-up: method as in PMID 33228403; conditions: cited from earlier work
# amyloglucosidase = conditions: read-out: IC50 amyloglucosidase; cited from earlier work
# [1] = system: β-D-galactosidase (E. coli); conditions: cited from earlier work
# [2] = system: α-D-galactosidase (coffee bean); conditions: cited from earlier work
# [3] = system: T1, α-D-mannosidase (Jack bean); conditions: cited from earlier work
# T1 construct: purchased Sigma-Aldrich; host or cells: Jack bean
# α-L-fucosidase = system: α-L-fucosidase; set-up: method as in PMID 2706004; conditions: cited from earlier work
# [4] = biological target: α-glucosidase (endoplasmatic reticulum I); set-up: method as in PMID 19294724; conditions: cited from earlier work
# [5] = biological target: α-glucosidase (endoplasmatic reticulum II); set-up: method as in PMID 19294724; conditions: cited from earlier work
# α-D-glucosidase = biological target: α-D-glucosidase; set-up: method as in PMID 31557624; conditions: cited from earlier work
# [6] = biological target: α-D-mannosidase (fruit fly Golgi II); set-up: method as in PMID 29323461; conditions: cited from earlier work
# [7] = system: α-D-mannosidase (neutral); set-up: method as in PMID 8457203; conditions: cited from earlier work
# [8] = system: α-D-mannosidase (lysosomal acidic); set-up: method as in PMID 8457203; conditions: cited from earlier work
# [9] = system: α-D-mannosidase (Golgi II); set-up: method as in PMID 8457203; conditions: cited from earlier work
# [10] = biological target: α-D-mannosidase (fruit fly lysosomal acidic); set-up: method as in PMID 29323461; conditions: cited from earlier work
# [11] = biological target: T2, β-D-glucosidase (bovine liver) (Bos taurus, UniProt F1MNT6); set-up: method as in PMID 41011173; conditions: cited from earlier work
# T2 sequence (F1MNT6 1-469): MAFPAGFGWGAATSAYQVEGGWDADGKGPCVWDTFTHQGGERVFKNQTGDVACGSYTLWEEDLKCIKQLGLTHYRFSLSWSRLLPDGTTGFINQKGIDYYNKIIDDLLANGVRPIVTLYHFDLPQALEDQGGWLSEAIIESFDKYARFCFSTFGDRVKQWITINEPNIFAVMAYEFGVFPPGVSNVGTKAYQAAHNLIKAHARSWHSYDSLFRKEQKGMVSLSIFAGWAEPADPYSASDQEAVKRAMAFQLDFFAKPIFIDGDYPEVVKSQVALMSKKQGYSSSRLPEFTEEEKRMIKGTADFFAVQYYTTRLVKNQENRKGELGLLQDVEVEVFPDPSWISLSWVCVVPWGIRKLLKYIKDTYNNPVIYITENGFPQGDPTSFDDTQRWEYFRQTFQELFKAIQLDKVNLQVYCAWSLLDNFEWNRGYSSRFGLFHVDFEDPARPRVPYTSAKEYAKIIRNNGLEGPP
# β-D-glucosidase (almond) [12] = system: β-D-glucosidase (almond); set-up: method as in PMID 41011173; conditions: Table 3 type assay; cited from earlier work
# β-D-glucosidase (almond) [13] = system: β-D-glucosidase (almond); set-up: method as in PMID 41011173; conditions: cited from earlier work
smiles,measurement,setting,value
OC[C@H]1NC[C@H](O)[C@@H](O)[C@@H]1O [1-DNJ],IC50,β-glucosidase (almond),[…]
same,IC50,amyloglucosidase,2.1 µM
"Cl.OC[C@@H](O)[C@H]1[C@H](O)[C@H](O)CN1Cc1ccccc1B(O)O [N-(2-Methylphenylboronic acid)-1,4-dideoxy-1,4-imino-D-talitol.HCl]",inhibition β-D-galactosidase (E. coli),[1],β-D-Galactosidase (E. coli) (44–55%)
same,inhibition α-D-galactosidase (coffee bean),[2],< 5%
same,inhibition α-D-mannosidase (Jack bean),[3],10%
"OC[C@@H](O)[C@@H]1[C@@H](O)[C@@H](O)CN1Cc1ccccc1 [N-Benzyl-1,4-dideoxy-1,4-imino-D-allitol]",inhibition α-L-fucosidase,α-L-fucosidase,α-L-Fucosidase (76%)
"Cl.OC[C@@H](O)[C@H]1[C@H](O)[C@H](O)CN1Cc1ccccc1 [N-Benzyl-1,4-dideoxy-1,4-imino-D-talitol.HCl]",inhibition β-D-galactosidase (E. coli),[1],poorly inhibited
same,inhibition α-D-galactosidase (coffee bean),[2],poorly inhibited
same,inhibition α-D-mannosidase (Jack bean),[3],poorly inhibited
CCCCN1C[C@H](O)[C@@H](O)[C@H](O)[C@H]1CO [N-Butyl-DNJ],IC50,[4],0.68 µM
same,IC50,[5],10.8 µM
"OC[C@@H](O)[C@H]1[C@H](O)[C@@H](O)CN1Cc1ccccc1 [N-benzyl-1,4-dideoxy-1,4-imino-D-galactitol]",IC50,α-D-glucosidase,40.6 µM
same,inhibition α-D-glucosidase,α-D-glucosidase,93.2%
"Cl.OC[C@@H](O)[C@@H]1[C@H](O)[C@H](O)CN1Cc1ccccc1 [N-benzyl-1,4-dideoxy-1,4-imino-D-mannitol.HCl]",IC50,[6],690 µM
same,inhibition α-D-mannosidase neutral,[7],44%
same,inhibition α-D-mannosidase lysosomal acidic,[8],34%
same,inhibition α-D-mannosidase Golgi II,[9],72%
same,IC50,[10],1500 µM
"OB(O)c1ccc(CN2C[C@@H](O)[C@H]3OC(O)[C@H](O)[C@H]32)cc1 (stereo partly drawn) [para 7, N-(4-methylphenylboronic acid)-3,6-dideoxy-3,6-imino-D-gulofuranose]",inhibition % β-D-Glucosidase Bovine Liver,[11],38.8%
same,Percentage inhibition β-D-Glucosidase Almond,β-D-glucosidase (almond) [12],68.1%
same,inhibition % β-D-Glucosidase Almond,β-D-glucosidase (almond) [13],43.6%
